Laboratory results published in the supplement of paper PMC11208160.

Experiment: recombinant UMI read abundance after kanamycin selection (control-corrected) (log10(CPM+1)); higher = more efficient recombination; extreme values may be limits of the assay; sequences stand for … in AGTGCAGAGAAAATCGGCCAGTTTTCTCTGCCTGCAGTCCGCATGCCGTGGGACCCCTTGGGTTCTAACCTGTTGCCTAGATTTATGCAGCGGACTGCCTTTCTCCCAAAGTGATAAACCGG…AGGTTGGTTTCACT; site = the 11-nt donor
How it was run: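 Each donor and donor-binding-loop pair was tracked by a 12-nt UMI on a plasmid carrying a promoterless kanamycin gene. With a second plasmid supplying a fixed target and T7-inducible IS621 bridge recombinase, the pool was plated in Escherichia coli on IPTG (0.07 mM) plus kanamycin or unselected. Sequencing of recombinant UMIs across the donor–target junction gave counts expressed as log10(CPM+1) after replicate averaging and control-derived scaling.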
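Note: IS621 bridge recombinase in Escherichia coli cells against a fixed T5 target plasmid.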

| Sequence | recombinant UMI read abundance (log10) |
| --- | --- |
| GGGGCCCCATGGACCGGTTTTCCCGGTAATCCGTATTTGCA (site GGGGCCCCTTG) | 0.411 |
| GGGGCCCCATGGACCGGTTTTCCCGGTAATCCGTATTTGCA (site GGGGCGCCTTG) | 0.0155 |
| GGGGCCCCATGGACCGGTTTTCCCGGTAATCCGTATTTGCA (site GGGGCTCCTTG) | 0.0122 |
| GGGGGACCATGGACCGGTTTTCCCGGTAATCCGTATTTGCA (site GGGGAACCTTG) | 0 |
| GGGGGACCATGGACCGGTTTTCCCGGTAATCCGTATTTGCA (site GGGGCACCTTG) | 0 |
| GGGGGACCATGGACCGGTTTTCCCGGTAATCCGTATTTGCA (site GGGGGACCTTG) | 0 |
| GGGGGACCATGGACCGGTTTTCCCGGTAATCCGTATTTGCA (site GGGGTACCTTG) | 0 |
| GGGGTACCATGGACCGGTTTTCCCGGTAATCCGTATTTGCA (site GGGGAACCTTG) | 0 |
| GGGGTACCATGGACCGGTTTTCCCGGTAATCCGTATTTGCA (site GGGGCACCTTG) | 0 |
| GGGGTACCATGGACCGGTTTTCCCGGTAATCCGTATTTGCA (site GGGGGACCTTG) | 0 |
| GGGGTACCATGGACCGGTTTTCCCGGTAATCCGTATTTGCA (site GGGGTACCTTG) | 0 |
| GGGGTGGCATGGACCGGTTTTCCCGGTAATCCGTATTTGGT (site GGAGTGGCTAC) | 0.553 |
| GGGGTGGCATGGACCGGTTTTCCCGGTAATCCGTATTTGGT (site GGCGTGGCTAC) | 0.0131 |
| GGGGTGGCATGGACCGGTTTTCCCGGTAATCCGTATTTGGT (site GGGGTGGCTAC) | 0.659 |
| GGGGTGGCATGGACCGGTTTTCCCGGTAATCCGTATTTGGT (site GGTGTGGCTAC) | 0.146 |
| GGGTATCCATGGACCGGTTTTCCCGGTAATCCGTATTTGTT (site CGGAATCCTAA) | 0 |
| GGGTATCCATGGACCGGTTTTCCCGGTAATCCGTATTTGTT (site GGGTATCCTAA) | 0.0203 |
| GGGTCACCATGGACCGGTTTTCCCGGTAATCCGTATTTGCA (site GGGACACCTTG) | 0 |
| GGGTCACCATGGACCGGTTTTCCCGGTAATCCGTATTTGCA (site GGGCCACCTTG) | 0 |
| GGGTCACCATGGACCGGTTTTCCCGGTAATCCGTATTTGCA (site GGGGCACCTTG) | 0 |
| GGGTCACCATGGACCGGTTTTCCCGGTAATCCGTATTTGCA (site GGGTCACCTTG) | 0 |
| GGGTGTGCATGGACCGGTTTTCCCGGTAATCCGTATTTGGC (site GGGTGTGCTGC) | 3 |
| GGGTTCCCATGGACCGGTTTTCCCGGTAATCCGTATTTGTC (site GGGTTCCCTGA) | 0 |
| GGTAAACCATGGACCGGTTTTCCCGGTAATCCGTATTTGAA (site GGTAAACCTTT) | 0 |
| GGTACGGCATGGACCGGTTTTCCCGGTAATCCGTATTTGTT (site GGTACGACTAA) | 0.00937 |

| Sequence | recombinant UMI read abundance (log10) |
| --- | --- |
| GGTACGGCATGGACCGGTTTTCCCGGTAATCCGTATTTGTT (site GGTACGCCTAA) | 0.0122 |
| GGTACGGCATGGACCGGTTTTCCCGGTAATCCGTATTTGTT (site GGTACGGCTAA) | 0.0127 |
| GGTACGGCATGGACCGGTTTTCCCGGTAATCCGTATTTGTT (site GGTACGTCTAA) | 0 |
| GGTACGTCATGGACCGGTTTTCCCGGTAATCCGTATTTGCT (site GGTACGTCTAA) | 0.0386 |
| GGTACGTCATGGACCGGTTTTCCCGGTAATCCGTATTTGCT (site GGTACGTCTAC) | 0.0226 |
| GGTACGTCATGGACCGGTTTTCCCGGTAATCCGTATTTGCT (site GGTACGTCTAG) | 2 |
| GGTACGTCATGGACCGGTTTTCCCGGTAATCCGTATTTGCT (site GGTACGTCTAT) | 0.00579 |
| GGTACGTCATGGACCGGTTTTCCCGGTAATCCGTATTTGGT (site GGTACGTCTAA) | 0.00807 |
| GGTACGTCATGGACCGGTTTTCCCGGTAATCCGTATTTGGT (site GGTACGTCTAC) | 1.33 |
| GGTACGTCATGGACCGGTTTTCCCGGTAATCCGTATTTGGT (site GGTACGTCTAG) | 0 |
| GGTACGTCATGGACCGGTTTTCCCGGTAATCCGTATTTGGT (site GGTACGTCTAT) | 0.339 |
| GGTACGTCATGGACCGGTTTTCCCGGTAATCCGTATTTGTG (site GGTACGTCTAA) | 0.0133 |
| GGTACGTCATGGACCGGTTTTCCCGGTAATCCGTATTTGTG (site GGTACGTCTCA) | 0.338 |
| GGTACGTCATGGACCGGTTTTCCCGGTAATCCGTATTTGTG (site GGTACGTCTGA) | 0 |
| GGTACGTCATGGACCGGTTTTCCCGGTAATCCGTATTTGTG (site GGTACGTCTTA) | 0 |
| GGTACGTCATGGACCGGTTTTCCCGGTAATCCGTATTTGTT (site AGTACGTCTAA) | 0.0112 |
| GGTACGTCATGGACCGGTTTTCCCGGTAATCCGTATTTGTT (site CGTACGTCTAA) | 0 |
| GGTACGTCATGGACCGGTTTTCCCGGTAATCCGTATTTGTT (site GATACGTCTAA) | 0.00543 |
| GGTACGTCATGGACCGGTTTTCCCGGTAATCCGTATTTGTT (site GCTACGTCTAA) | 0.0161 |
| GGTACGTCATGGACCGGTTTTCCCGGTAATCCGTATTTGTT (site GGAACGTCTAA) | 0.0323 |
| GGTACGTCATGGACCGGTTTTCCCGGTAATCCGTATTTGTT (site GGCACGTCTAA) | 0.0185 |
| GGTACGTCATGGACCGGTTTTCCCGGTAATCCGTATTTGTT (site GGGACGTCTAA) | 0.0133 |
| GGTACGTCATGGACCGGTTTTCCCGGTAATCCGTATTTGTT (site GGTAAGTCTAA) | 0 |
| GGTACGTCATGGACCGGTTTTCCCGGTAATCCGTATTTGTT (site GGTACATCTAA) | 0.535 |
| GGTACGTCATGGACCGGTTTTCCCGGTAATCCGTATTTGTT (site GGTACCTCTAA) | 0.0198 |

| Sequence | recombinant UMI read abundance (log10) |
| --- | --- |
| GGTACGTCATGGACCGGTTTTCCCGGTAATCCGTATTTGTT (site GGTACGACTAA) | 0.0066 |
| GGTACGTCATGGACCGGTTTTCCCGGTAATCCGTATTTGTT (site GGTACGCCTAA) | 0.0208 |
| GGTACGTCATGGACCGGTTTTCCCGGTAATCCGTATTTGTT (site GGTACGGCTAA) | 0.0154 |
| GGTACGTCATGGACCGGTTTTCCCGGTAATCCGTATTTGTT (site GGTACGTCTAA) | 0.31 |
| GGTACGTCATGGACCGGTTTTCCCGGTAATCCGTATTTGTT (site GGTACGTCTAC) | 0 |
| GGTACGTCATGGACCGGTTTTCCCGGTAATCCGTATTTGTT (site GGTACGTCTAG) | 0 |
| GGTACGTCATGGACCGGTTTTCCCGGTAATCCGTATTTGTT (site GGTACGTCTAT) | 0 |
| GGTACGTCATGGACCGGTTTTCCCGGTAATCCGTATTTGTT (site GGTACGTCTCA) | 0.0191 |
| GGTACGTCATGGACCGGTTTTCCCGGTAATCCGTATTTGTT (site GGTACGTCTGA) | 0 |
| GGTACGTCATGGACCGGTTTTCCCGGTAATCCGTATTTGTT (site GGTACGTCTTA) | 0.0065 |
| GGTACGTCATGGACCGGTTTTCCCGGTAATCCGTATTTGTT (site GGTACTTCTAA) | 0 |
| GGTACGTCATGGACCGGTTTTCCCGGTAATCCGTATTTGTT (site GGTAGGTCTAA) | 0.00929 |
| GGTACGTCATGGACCGGTTTTCCCGGTAATCCGTATTTGTT (site GGTATGTCTAA) | 0.00457 |
| GGTACGTCATGGACCGGTTTTCCCGGTAATCCGTATTTGTT (site GGTCCGTCTAA) | 0.0113 |
| GGTACGTCATGGACCGGTTTTCCCGGTAATCCGTATTTGTT (site GGTGCGTCTAA) | 0.00982 |
| GGTACGTCATGGACCGGTTTTCCCGGTAATCCGTATTTGTT (site GGTTCGTCTAA) | 0 |
| GGTACGTCATGGACCGGTTTTCCCGGTAATCCGTATTTGTT (site GTTACGTCTAA) | 0.0263 |
| GGTACGTCATGGACCGGTTTTCCCGGTAATCCGTATTTGTT (site TGTACGTCTAA) | 0.0329 |
| GGTACTTCATGGACCGGTTTTCCCGGTAATCCGTATTTGAT (site GGTACTTCTAT) | 0.4 |
| GGTAGAACATGGACCGGTTTTCCCGGTAATCCGTATTTGTA (site GGTAGAACTTA) | 1.39 |
| GGTAGCGCATGGACCGGTTTTCCCGGTAATCCGTATTTGTT (site GGTAGCGCTAA) | 1.5 |
| GGTCAAACATGGACCGGTTTTCCCGGTAATCCGTATTTGTA (site GGTCAAACTTA) | 0.645 |
| GGTCAAACATGGACCGGTTTTCCCGGTAATCCGTATTTGTA (site GGTCCAACTTA) | 0.0193 |
| GGTCAAACATGGACCGGTTTTCCCGGTAATCCGTATTTGTA (site GGTCGAACTTA) | 0.00424 |
| GGTCAAACATGGACCGGTTTTCCCGGTAATCCGTATTTGTA (site GGTCTAACTTA) | 0.0103 |
